In experiment [1] the target is Human RNR (human M1 subunit and human M2 subunit) (Homo sapiens (Human), UniProt P23921). In words: Human RNR inhibition effect (formation of dCDP from CDP, HPLC). Format: biochemical. The method, then:
The inhibitory activity against the ribonucleotide reduction reaction (hereinafter referred to as RNR reaction) of the test compound was determined by measuring the formation of deoxycytidine diphosphate (hereinafter referred to as dCDP) from cytidine diphosphate (hereinafter referred to as CDP) by the following method.
Human M1 subunit and human M2 subunit (mutant lacking amino terminal 59 amino acids), which are fused a histidine tag at the amino terminus, are overexpressed in Escherichia coli and are solubilized after collection, and histidine tagged human M1 and M2 proteins were purified on a nickel chelate column.
First, test compounds were serially diluted with DMSO. Next, human M1 protein and human M2 protein were added to an aqueous albumin solution derived from 0.02% fetal bovine serum, a DMSO solution of the compound of the present invention or the control DMSO solution (final concentration of DMSO was 1%) was added, and the mixture was allowed to stand for 20 minutes. Thereafter, the reaction buffer [50 mM HEPES buffer (pH 7.2) at the final concentration, 4 mM magnesium acetate at the final concentration, 100 mM potassium chloride at the final concentration, 6 mM dithiothreitol at the final concentration, 2 mM adenosine triphosphate at the final concentration, 0.24 mM nicotinamide adenine dinucleotide phosphate at final concentration] and 10 μM CDP at the final concentration were added and incubated at 37° C. for 30 minutes to perform RNR reaction. Immediately after the reaction, the reaction was stopped by heating at 100° C. for 15 minutes, followed by centrifugation at 10,000 rpm for 10 minutes. After the centrifugation, a portion (5 μL) of the resulting supernatant was analyzed with a high performance liquid chromatography (Shimadzu Corporation, Prominence) using Shim-pack XR-ODS (manufactured by Shimadzu GLC Co., 3.0×100 mm).

Experiment [2] concerns HCC 1806 cells. In words: Cell proliferation inhibitory effect on human breast cancer cell line (crystal violet, 72 hours). Format: cell-based. The following applies: Homo sapiens, HCC1806, 72 h, read-out: Cell growth suppression IC50. In outline: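 Cells were seeded at 2,000/well in RPMI-1640 with 10% FBS and grown 1 day, then exposed to compound for 72 h at 37° C, 5% CO2. After glutaraldehyde fixation and 0.05% crystal violet staining, extracted dye was read at 540 nm. IC50 (μM) came from growth inhibition relative to untreated and cell-free wells.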

Setting [3] is: human M1 and M2 subunits, formation of dCDP from CDP, read-out: RNR Enzyme inhibitory activity IC50.

Like-named read-outs stand apart in the source and are kept apart here.

Chain of Human RNR (human M1 subunit and human M2 subunit) (P23921 whole entry): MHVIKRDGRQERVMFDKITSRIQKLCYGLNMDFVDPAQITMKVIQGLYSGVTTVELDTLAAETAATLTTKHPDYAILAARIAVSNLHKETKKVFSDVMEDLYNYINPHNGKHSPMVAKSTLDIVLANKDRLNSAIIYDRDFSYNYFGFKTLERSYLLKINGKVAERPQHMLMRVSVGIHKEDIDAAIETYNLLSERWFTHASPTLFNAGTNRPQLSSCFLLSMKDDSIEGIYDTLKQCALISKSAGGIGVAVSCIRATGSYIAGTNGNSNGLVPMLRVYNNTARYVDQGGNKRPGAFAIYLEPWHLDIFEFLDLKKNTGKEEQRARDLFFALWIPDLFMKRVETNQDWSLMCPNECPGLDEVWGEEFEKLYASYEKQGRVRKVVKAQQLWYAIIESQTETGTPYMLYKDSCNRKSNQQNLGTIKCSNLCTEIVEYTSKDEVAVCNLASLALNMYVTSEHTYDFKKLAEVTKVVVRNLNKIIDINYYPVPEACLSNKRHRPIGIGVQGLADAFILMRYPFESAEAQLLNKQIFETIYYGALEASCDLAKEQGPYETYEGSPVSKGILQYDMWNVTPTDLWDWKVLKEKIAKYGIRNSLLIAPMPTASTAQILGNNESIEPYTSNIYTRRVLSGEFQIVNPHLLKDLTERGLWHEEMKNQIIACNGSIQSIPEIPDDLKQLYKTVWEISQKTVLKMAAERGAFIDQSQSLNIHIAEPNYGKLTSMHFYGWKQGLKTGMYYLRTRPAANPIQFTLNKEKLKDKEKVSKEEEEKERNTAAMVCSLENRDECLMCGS

Regarding `Cc1ccc(F)c([C@@H](C)[C@H](NS(=O)(=O)c2ccc(C(F)(F)F)c3c2OCCC3(C)O)c2n[nH]c(=O)o2)c1C` (single isomer, unassigned) [Example 225A], the IC50 in experiment [1] (setting [3]) came out at 120 nM; in experiment [2], 600 nM. Consider `Cc1ccc(S(=O)(=O)NC(Cc2ccccc2)c2nnc(S)o2)cc1` (stereo not shown) [Comparative Example 1, reference compound], for which the IC50 in experiment [1] (human M1 and M2 proteins, 10 μM CDP, 37° C. for 30 minutes, read-out: IC50 (concentration inhibiting the RNR reaction by 50%)) was 43000 nM. Consider `COc1cc(Cl)ccc1S(=O)(=O)N[C@H](c1n[nH]c(=O)o1)[C@H](C)c1c(F)ccc(-c2ccn(C)n2)c1C` [Example 305, 4-chloro-N-((1S,2R)-2-(6-fluoro-2-methyl-3-(1-methyl-1H-pyrazol-3-yl)phenyl)-1-(5-oxo-4,5-dihydro-1,3,4-oxadiazol-2-yl)propyl)-2-methoxybenzenesulfonamide], for which, in experiment [1] (setting [3]), the IC50 stood at 240 nM.

For the origin of these results see US10889555B2, “Sulfonamide compound or salt thereof” (Taiho Pharmaceutical Co., Ltd., priority 2016, dated 2021).
